The values below come from paper PMC10019194, “Killing Two Birds with One Stone: Discovery of Dual Inhibitors of Oxygen and Fumarate Respiration in Zoonotic Parasite, Echinococcus multilocularis” (Antimicrobial Agents and Chemotherapy, 2023).

Entries after “also recorded” stand apart in the source; their conditions may differ. Where two headings read alike, the source gives them in different places. A value given as a limit tells only on which side of the number the result lay.

The target in assay [1] is complex II (succinate:quinone reductase, SQR) (Echinococcus multilocularis, UniProt A0A1Z4EAW8+A0A1Z4EAX0+A0A1Z4EAX1). The assay is described as follows: Succinate:quinone reductase (SQR) activity (complex II) in protoscoleces mitochondrial fraction. Type of assay: biochemical. From the text: (§1) Cyst tissues containing E. multilocularis (Nemuro strain) protoscoleces isolated from infected hispid cotton rats, Sigmodon hispidus, were used. The tissues were shredded through a metal mesh (0.5 mm diameter). Then, the tissues were repeatedly suspended and washed with physiological saline in a tall beaker to obtain protoscoleces by exploiting the buoyancy difference between protoscoleces and other tissue ([26]). The obtained protoscoleces were homogenized with a motor-driven homogenizer to prepare the mitochondrial fraction. The homogenate was diluted with mitochondrial preparation buffer (210 mM mannitol, 10 mM sucrose, 1 mM disodium EDTA, and 50 mM Tris-HCl [pH 7.5]) supplemented with 10 mM sodium malonate to 5 times the volume of the original protoscolex homogenate, and then centrifuged at 800 × g for 10 min (4°C) to remove cell debris and nuclei. The supernatant was then centrifuged at 8,000 × g for 10 min (4°C) to obtain the mitochondrial pellet. Next, the pellet was resuspended in mitochondrial preparation buffer (without malonate) and centrifuged at 8,000 × g for 10 min (4°C). The enriched mitochondrial fraction was finally suspended in approximately 0.5 to 1.0 mL of mitochondrial preparation buffer without malonate and frozen at −50°C. The mitochondrial fraction from A. suum was prepared essentially as described previously ([27], [28]).
(§2) NADH:quinone reductase activity (complex I), succinate:quinone reductase activity (complex II), and succinate:cytochrome c reductase activity (complexes II to III) were measured using a UV-3000 spectrophotometer (Shimadzu, Kyoto, Japan) as described previously ([4], [6]). Briefly, all enzyme assays using mitochondrial fractions were performed in 0.5- or 1.0-mL reaction mixtures at 25°C. A freeze/thaw process was performed before the assay to ensure that the mitochondrial membrane was permeable to the solutes. The final mitochondrial protein concentration was 50 μg/mL. NADH:quinone reductase activity was measured in 50 mM potassium phosphate buffer (pH 7.4) containing 2 mM potassium cyanide, KCN (Sigma, St. Louis, MO, USA), and 60 μM decylubiquinone (Sigma). The activity assay was started by the addition of 50 μM NADH (Fujifilm-Wako, Tokyo, Japan) and recorded as the rate of NADH consumption as monitored at 340 nm (ε = 6.2 mM^−1 cm^−1). The reagents used in the SQR activity assay were mixed with the reaction buffer containing 50 mM potassium phosphate (pH 7.4) and 0.1% (wt/vol) sucrose monolaurate (DOJINDO, Kumamoto, Japan). SQR activity was determined by monitoring the change in absorbance of quinone at 278 nm (ε = 15 mM^−1 cm^−1) in the presence of 60 μM decylubiquinone, 2 mM KCN, and the inhibitor. The reaction was initiated by the addition of 10 mM disodium succinate to the mixture. NADH:cytochrome c activity (complex I to III) was measured in the reaction buffer (30 mM potassium phosphate, 1 mM MgCl2, pH 7.5) containing 2 mM KCN, 50 μM cytochrome c (Nacalai Tesque, Kyoto, Japan), and the inhibitor. The assay was performed after the addition of 100 mM malonate to block complex II activity. The reaction was started by adding 50 μM NADH to the mixture, and the enzyme activity was determined by monitoring the change in absorbance of cytochrome c at 550 nm (ε = 19 mM^−1 cm^−1). IC50 values of AF and its derivatives against the specific activities of mitochondrial respiratory enzymes in protoscoleces were determined. The IC50 of each compound was determined by calculating approximation lines from three or more points on either side of the IC50 concentration.

Assay [2] relates to E. multilocularis protoscoleces. The assay is described as follows: Ex vivo culture assay of live protoscoleces, viability by trypan blue exclusion. In kind it is cell-based, Echinococcus multilocularis. The conditions noted are these: 50 μM. On the procedure:
FIG 5 Viability of E. multilocularis protoscoleces in ex vivo culture assay. The E. multilocularis protoscoleces were treated with ascofuranone (AF) and its derivatives in culture under aerobic and anaerobic conditions (O2 <0.3%). Each compound was added to the culture medium at a final concentration of 50 μM. The control group was supplemented with 0.5% (vol/vol) dimethyl sulfoxide (DMSO). Atovaquone (ATV) was used as positive control and to ensure anaerobic conditions in the culture. The viability of protoscoleces was evaluated by their ability to exclude trypan blue. The data are presented as the mean ± standard deviation (n = 3).
The obtained protoscoleces were cultured in Connaught Medical Research Laboratories 1066 medium (Gibco, Grand Island, NY, USA) containing 0.5% (wt/vol) yeast extract (Difco Laboratories, Detroit, MI, USA), 2 mM L-glutamine (Gibco), 23 mM 4-(2-hydroxyethyl)-1-piperazineethanesulfonic acid, 0.5% (wt/vol) D (+)-glucose, 0.4 mM sodium taurocholate (Wako Pure Chemical Industries, Osaka, Japan), 57 mM sodium hydrogen carbonate, and 100 U/mL penicillin-streptomycin (Gibco). The protoscoleces were observed daily for seven consecutive days, and half of the medium was replaced on day 3. For anaerobic cultures, six-well plates were sealed in plastic containers with oxygen-detecting agents and oxygen scavengers (Aneromeito, Nissui Pharmaceutical, Tokyo, Japan) to keep the oxygen concentration below 0.3% at 37°C. The protoscoleces were treated with AF and its derivatives at a final concentration of 50 μM in the culture medium, and the duration of parasite elimination was investigated. The control group was supplemented with 0.5% (vol/vol) dimethyl sulfoxide (DMSO), and all conditions were assayed in triplicate. We used ATV in a culture assay as positive control and to ensure anaerobic conditions in the culture ([4], [5]). […] The viability of protoscoleces was determined after microscopic observation of more than 170 protoscoleces per well using the trypan blue exclusion test, as described previously ([4], [6], [33]).

Assay [3] concerns the target complex I and III (NADH:cytochrome c reductase) (Echinococcus multilocularis, UniProt Q9TE80). The assay is described as follows: NADH:cytochrome c reductase activity (complex I to III) in protoscoleces mitochondrial fraction. Type of assay: biochemical.
From the text: as §1, §2

Assay [4] deals with complex I (NADH:quinone reductase) (Echinococcus multilocularis, UniProt A0A068Y553+A0A068Y9L9+Q9TE76). The assay is described as follows: NADH:quinone reductase activity (complex I) in protoscoleces mitochondrial fraction. As to conditions: for IC50: E. multilocularis protoscoleces mitochondria, read-out: IC50 NADH:decyl rhodoquinone reductase (complex I). In kind it is biochemical.
From the text: as §1
as §2, with “Louis, MO, USA), and 60 μM decylubiquinone (Sigma).” left out, “SQR activity was determined by monitoring the change in absorbance of quinone at 278 nm (ε = 15 mM^−1 cm^−1) in the presence of 60 μM decylubiquinone, 2 mM KCN, and the inhibitor.” left out

[5] abbreviates: IC50, E. multilocularis SQR inhibition, Table 5, furanone ring-substituted derivatives, mean ± SEM.
The mark [6] stands for this setting: IC50 against E. multilocularis complex II (SQR), figure legends, supplement.
[7] abbreviates: IC50 against E. multilocularis SQR, Table 3, various side chain lengths, mean ± SEM.
Setting [8] is: IC50, inhibition of E. multilocularis SQR, Table 2, substitutions on the benzene group, mean ± SEM.
The mark [9] stands for this setting: IC50 Succinate:quinone reductase (SQR) (complex II), E. multilocularis protoscoleces mitochondria, mean ± SEM, Table 1.
The mark [10] stands for this setting: E. multilocularis protoscoleces mitochondria; mean ± SEM; Table 1; read-out: IC50 NADH:cytochrome c reductase (complex I and III).
The mark [11] stands for this setting: IC50, inhibition of E. multilocularis SQR, Table 4, different linker structures, mean ± SEM.

complex II (succinate:quinone reductase, SQR), sequence (A0A1Z4EAV8 entry or part of it): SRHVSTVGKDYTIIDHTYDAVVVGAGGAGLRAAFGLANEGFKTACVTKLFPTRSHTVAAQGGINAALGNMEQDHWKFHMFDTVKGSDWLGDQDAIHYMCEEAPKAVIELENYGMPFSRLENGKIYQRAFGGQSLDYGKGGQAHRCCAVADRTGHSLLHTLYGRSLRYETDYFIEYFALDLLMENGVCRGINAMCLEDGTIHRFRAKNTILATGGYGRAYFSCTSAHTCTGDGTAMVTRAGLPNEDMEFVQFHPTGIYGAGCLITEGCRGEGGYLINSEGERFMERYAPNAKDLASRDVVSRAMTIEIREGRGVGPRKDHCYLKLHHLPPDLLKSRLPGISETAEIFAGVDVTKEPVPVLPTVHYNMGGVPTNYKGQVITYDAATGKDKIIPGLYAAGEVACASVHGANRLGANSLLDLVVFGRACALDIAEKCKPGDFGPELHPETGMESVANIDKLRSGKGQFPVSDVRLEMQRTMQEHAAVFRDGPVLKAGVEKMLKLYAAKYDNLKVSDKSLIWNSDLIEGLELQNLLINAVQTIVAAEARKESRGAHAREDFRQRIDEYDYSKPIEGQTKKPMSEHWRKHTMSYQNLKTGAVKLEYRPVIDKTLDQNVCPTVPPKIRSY
complex II (succinate:quinone reductase, SQR), sequence (A0A1Z4EAX1 entry or part of it): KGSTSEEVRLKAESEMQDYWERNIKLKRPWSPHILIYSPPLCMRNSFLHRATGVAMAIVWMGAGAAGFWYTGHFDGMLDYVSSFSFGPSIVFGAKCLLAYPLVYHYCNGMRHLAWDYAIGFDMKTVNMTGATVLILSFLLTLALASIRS
complex II (succinate:quinone reductase, SQR), sequence (A0A1Z4EAX0 entry or part of it): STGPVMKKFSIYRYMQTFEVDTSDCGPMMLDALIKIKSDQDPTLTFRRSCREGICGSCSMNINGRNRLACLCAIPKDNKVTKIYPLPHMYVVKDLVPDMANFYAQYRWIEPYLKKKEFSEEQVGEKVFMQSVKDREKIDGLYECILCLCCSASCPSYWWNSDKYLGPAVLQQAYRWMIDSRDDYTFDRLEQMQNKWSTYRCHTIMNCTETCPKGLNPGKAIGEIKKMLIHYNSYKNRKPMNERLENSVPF
complex II (succinate:quinone reductase, SQR), sequence (A0A1Z4EAW8 entry or part of it): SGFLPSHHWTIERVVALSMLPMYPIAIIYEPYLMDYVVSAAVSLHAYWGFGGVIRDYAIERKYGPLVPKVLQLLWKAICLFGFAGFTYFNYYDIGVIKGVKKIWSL
complex I and III (NADH:cytochrome c reductase), sequence (Q9TE80 entry or part of it): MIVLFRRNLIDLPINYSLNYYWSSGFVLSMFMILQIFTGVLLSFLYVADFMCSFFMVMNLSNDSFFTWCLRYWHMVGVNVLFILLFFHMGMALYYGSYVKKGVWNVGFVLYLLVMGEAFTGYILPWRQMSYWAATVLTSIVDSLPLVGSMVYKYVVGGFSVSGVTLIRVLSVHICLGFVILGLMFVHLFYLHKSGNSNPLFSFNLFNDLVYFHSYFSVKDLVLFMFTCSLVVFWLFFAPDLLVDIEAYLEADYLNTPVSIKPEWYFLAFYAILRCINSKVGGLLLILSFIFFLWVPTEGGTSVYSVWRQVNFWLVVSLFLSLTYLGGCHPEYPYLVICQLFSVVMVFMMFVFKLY
complex I and III (NADH:cytochrome c reductase), sequence (Q9GP40 whole entry, further chain): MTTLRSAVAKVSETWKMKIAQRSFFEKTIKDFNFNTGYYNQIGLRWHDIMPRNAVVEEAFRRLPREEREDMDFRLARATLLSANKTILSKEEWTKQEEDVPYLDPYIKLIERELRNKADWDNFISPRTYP
complex I and III (NADH:cytochrome c reductase), sequence (Q9TE76 entry or part of it, further chain): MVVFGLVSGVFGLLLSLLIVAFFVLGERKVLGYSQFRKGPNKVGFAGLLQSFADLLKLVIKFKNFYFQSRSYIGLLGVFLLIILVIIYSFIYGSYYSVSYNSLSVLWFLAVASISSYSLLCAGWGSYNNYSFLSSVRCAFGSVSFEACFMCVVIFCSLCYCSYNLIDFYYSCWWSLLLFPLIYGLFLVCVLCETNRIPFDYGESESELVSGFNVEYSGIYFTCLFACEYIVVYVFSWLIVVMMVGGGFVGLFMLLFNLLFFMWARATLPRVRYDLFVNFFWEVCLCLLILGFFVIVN

A word on the IC50: it is the point on the concentration scale where inhibition reaches its midpoint. With `C#CCOC/C(C)=C/CC/C(C)=C/Cc1c(O)c(Cl)c(C)c(C=O)c1O` [Compound D16], the figures for the IC50 in assay [1] (setting [5]) and in assay [1] (setting [6]) were 258 ± 72 nM and 250 nM, respectively.
In turn, `CCCCCCC/C=C/c1c(O)c(Cl)c(C)c(C=O)c1O` [Compound C9] displayed an IC50 in assay [1] (setting [7]) of 1200 ± 120 nM.
Turning to `COc1c(Cl)c(C)c(C=O)c(O)c1C/C=C(\C)CC/C=C(\C)C1CC(=O)C(C)(C)O1` (stereo not drawn) [Compound D11], the “SQR inhibitory activity” value in assay [1] (4-OH changed to methoxy) is on record as “inhibitory activity was lost”. Moreover, the IC50 in assay [1] (setting [8]) was over 10000 nM.
With `C/C(=C\Cc1c(O)c(Cl)c(C)c(C=O)c1O)CC/C=C(\C)C(C)O` (stereo not drawn) [Compound D18], the IC50 in assay [1] (read-out: IC50, E. multilocularis SQR inhibition, Table 5, furanone ring-substituted derivatives, mean ± SEM) amounted to 3770 ± 980 nM.
`CCCCCCCC/C=C/c1c(O)c(Cl)c(C)c(C=O)c1O` [Compound C10]: the midpoint of inhibition in assay [1] (setting [7]), the IC50, lay at 1200 ± 80 nM.
Take `C/C(=C\Cc1c(O)c(Cl)c(C)c(C=O)c1O)CC/C=C(\C)[C@@H]1CC(=O)C(C)(C)O1` [AF, Ascofuranone]: in assay [2] (aerobic culture), the “viability of protoscoleces during treatment” value is “progressively reduced”. In addition, the “viability / killing of protoscoleces during treatment” value in assay [2] (anaerobic culture (O2 <0.3%)) is given as “progressively reduced; also recorded: strong killing effect”. Moreover, the “antiparasitic effect on protoscoleces in culture assay” value in assay [2] (both anaerobic and aerobic conditions) was “strong antiparasitic effect”. The IC50 in assay [3] (read-out: IC50 NADH:cytochrome c reductase (complex I and III); E. multilocularis protoscoleces mitochondria; mean ± SEM; Table 1) is 57 ± 11 nM; in assay [4] it was over 50 µM; in assay [1] (setting [5]), 1100 ± 210 nM; in assay [1] (setting [8]), 1100 ± 210 nM; in assay [1] (setting [9]) it was 1100 ± 210 nM. The “inhibition of NADH:ubiquinone reductase activity of complex I” value in assay [4] is given as “not inhibited”.
`CCCCCCCCCC/C=C/c1c(O)c(Cl)c(C)c(C=O)c1O` [Compound C12] showed a half-inhibitory concentration (IC50) in assay [1] (setting [7]) of 1700 ± 720 nM.
Turning to `C/C(=C\Cc1c(O)c(Cl)c(C)c(C=O)c1O)CC/C=C(\C)COC(=O)C(C)(C)C` [Compound D17], the values for the IC50 in assay [1] (setting [5]) and in assay [1] (setting [6]) were 488 ± 15 nM and 480 nM, respectively.
In assay [1] (setting [7]), `CCCCC/C=C/c1c(O)c(Cl)c(C)c(C=O)c1O` [Compound C7] registered an IC50 of 950 ± 270 nM.
Same read-out and setting: under `Cc1c(Cl)c(O)cc(O)c1C=O` [Compound C0] stands over 20000 nM.
Take `CC(=O)c1c(C)c(Cl)c(O)c(C/C=C(\C)CC/C=C(\C)CCC=C(C)C)c1O` [Compound D3]: the IC50 in assay [3] (setting [10]) was 14 ± 2 nM; in assay [4], over 50 µM; in assay [1] (setting [9]) it was 135 ± 14 nM.
In turn, `COC(=O)c1c(C)c(Cl)c(O)c(C/C=C(\C)CCC=C(C)C)c1O` [Compound D9] came in with an IC50 in assay [1] (setting [8]) of over 10000 nM.
In assay [1] (setting [8]), `CC(C)=CCC/C(C)=C/Cc1c(O)cc(C)c(C=O)c1O` [Compound D8] yielded an IC50 of over 10000 nM.
Consider `CC(C)=CCC/C(C)=C/Cc1c(O)c(Cl)c(C)c(C=O)c1O` [Compound D7], for which, in assay [1] (1-aldehyde (D7) vs 1-acetyl (D6)), the “increase of SQR IC50 compared to D6” value was found to be 2 fold.
The molecule `C/C=C/c1c(O)c(Cl)c(C)c(C=O)c1O` [Compound C3] yielded an IC50 in assay [1] (setting [7]) of 5400 ± 700 nM.
Take `CC(C)=CCC/C(C)=C/CC/C(C)=C/Cc1c(O)c(Cl)cc(C=O)c1O` [Compound D1]: the results for the IC50 in assay [3] (setting [10]), in assay [4] and in assay [1] (setting [9]) were 274 ± 25 nM, over 50 µM and 88 ± 13 nM, respectively.
For the molecule `CC(=O)c1c(C)c(Cl)c(O)c(C/C=C(\C)CCC=C(C)C)c1O` [Compound D6], the midpoint of inhibition in assay [1] (setting [8]), the IC50, lay at 210 ± 22 nM.
With `CCCCCC(C)CCc1c(O)c(Cl)c(C)c(C=O)c1O` (stereo not drawn) [Compound D14], the IC50 in assay [1] (setting [11]) amounted to 540 nM.
In turn, `C/C(=C\Cc1c(O)c(Cl)cc(C=O)c1O)CC/C=C(\C)C1CC(=O)C(C)(C)O1` (stereo not drawn) [Compound D10] returned an IC50 in assay [1] (setting [8]) of 550 ± 130 nM.
In assay [1] (setting [11]), `CCCCCCCCc1c(O)c(Cl)c(C)c(C=O)c1O` [Compound D15] yielded an IC50 of 890 ± 110 nM.
The molecule `Cc1c(Cl)c(O)c(CCC(C)CCCC(C)C)c(O)c1C=O` (stereo not drawn) [Compound D13] came in with an IC50 in assay [1] (setting [11]) of 280 ± 50 nM.
Consider `CC(C)=CCC/C(C)=C/Cc1c(O)c(Cl)c(C)c(C=O)c1O` [Compound D12], for which half-maximal inhibition in assay [1] (setting [11]) (IC50) was put at 570 ± 30 nM.
In assay [1] (setting [7]), `CCC/C=C/c1c(O)c(Cl)c(C)c(C=O)c1O` [Compound C5] showed an IC50 of 3300 ± 270 nM.
As for `C/C(=C\CC/C(C)=C/Cc1c(O)c(Cl)c(C)c(C=O)c1O)CO` [Compound D19], the IC50 in assay [1] (setting [5]) was over 10000 nM.
